Source: patent US11718622B2, “Heterocyclic adenosine receptor antagonists” (Exelixis, Inc., priority 2020, dated 2023)

Experiments:
[1] = biological target: Adenosine A2B (ADORA2B) receptor (Homo sapiens (Human), UniProt P29275); assay: ADORA2B Receptor Binding Assay; conditions: radioligand binding, membrane stock
Summary of the method: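 Radioligand competition binding on human A2B receptor membranes, 1 h at room temperature, then filtration through BSA-presoaked GF/C filters and ³H counting by scintillation. Inhibition expressed as % of high control after background subtraction.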

[2] = biological target: Adenosine A2a (ADORA2A) receptor (Homo sapiens (Human), UniProt P29274); assay: ADORA2A Receptor Binding Assay; conditions: radioligand binding, membrane stock
Summary of the method: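 Test compounds incubated with A2a receptor membranes and a ³H-labelled radioligand for 2 hours at room temperature, then filtered through PEI-presoaked GF/C plates and washed. Filter-bound ³H counted by scintillation; % inhibition calculated from background-subtracted signal relative to high control.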

Adenosine A2a (ADORA2A) receptor, sequence (P29274 whole entry): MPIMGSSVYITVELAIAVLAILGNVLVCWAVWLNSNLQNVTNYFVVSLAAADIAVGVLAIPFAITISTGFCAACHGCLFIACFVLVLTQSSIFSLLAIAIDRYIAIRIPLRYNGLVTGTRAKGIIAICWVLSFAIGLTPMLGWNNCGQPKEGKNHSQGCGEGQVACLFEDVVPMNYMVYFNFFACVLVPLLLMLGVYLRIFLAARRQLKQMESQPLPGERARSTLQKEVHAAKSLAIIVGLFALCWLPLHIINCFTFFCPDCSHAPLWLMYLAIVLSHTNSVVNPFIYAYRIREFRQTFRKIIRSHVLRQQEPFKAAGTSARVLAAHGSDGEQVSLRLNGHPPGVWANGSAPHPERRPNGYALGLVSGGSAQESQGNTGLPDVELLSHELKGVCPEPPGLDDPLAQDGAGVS
Adenosine A2B (ADORA2B) receptor, sequence (P29275 whole entry): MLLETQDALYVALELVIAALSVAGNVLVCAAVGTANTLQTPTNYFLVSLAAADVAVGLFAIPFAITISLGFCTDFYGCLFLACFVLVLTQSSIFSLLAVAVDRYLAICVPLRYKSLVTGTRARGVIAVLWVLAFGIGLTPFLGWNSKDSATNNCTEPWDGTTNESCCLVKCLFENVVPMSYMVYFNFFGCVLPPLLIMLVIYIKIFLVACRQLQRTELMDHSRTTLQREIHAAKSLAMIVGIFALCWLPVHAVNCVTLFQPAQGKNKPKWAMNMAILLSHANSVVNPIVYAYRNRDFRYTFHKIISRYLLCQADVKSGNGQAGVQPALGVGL

| IC50 [1] | IC50 [2] | SMILES |
| --- | --- | --- |
| 0.01 to 0.1 µM | < 0.01 µM | Cc1nc2c(-c3ccc(F)cc3)nc(N)c(Cl)n2n1 [Compound 170, 5-chloro-8-(4-fluorophenyl)-2-methyl-[1,2,4]triazolo[1,5-a]pyrazin-6-amine] |
| 0.01 to 0.1 µM | 0.01 to 0.1 µM | Cc1nc2c(Br)c(N)nc(-c3ccccc3)n2n1 [Compound 89, 8-bromo-2-methyl-5-phenyl-[1,2,4]triazolo[1,5-c]pyrimidin-7-amine] |
| < 0.01 µM | < 0.01 µM | CC(C)c1nc2c(-c3ccccc3)nc(N)c(Cl)n2n1 [Compound 177, 5-chloro-8-phenyl-2-propan-2-yl-[1,2,4]triazolo[1,5-a]pyrazin-6-amine] |
| < 0.01 µM | < 0.01 µM | Cc1ccc(-c2nc(N)c(Cl)n3nc(C)nc23)cc1 [Compound 184, 5-chloro-2-methyl-8-(4-methylphenyl)-[1,2,4]triazolo[1,5-a]pyrazin-6-amine] |
| 0.1 to 1 µM | 0.1 to 1 µM | Cc1cccc(-c2nc(N)c(Cl)n3cc(C)nc23)c1 [Compound 207, 5-chloro-2-methyl-8-(3-methylphenyl)imidazo[1,2-a]pyrazin-6-amine] |
| 0.1 to 1 µM | 0.01 to 0.1 µM | Cc1nc2cc(NC(=O)C3CC3)nc(-c3cccc(C#N)c3)n2n1 [Compound 53, N-[5-(3-cyanophenyl)-2-methyl-[1,2,4]triazolo[1,5-c]pyrimidin-7-yl]cyclopropanecarboxamide] |
| 0.01 to 0.1 µM | < 0.01 µM | CC(=O)Nc1cc2nc(C)nn2c(-c2ccco2)n1 [Compound 37, N-[5-(furan-2-yl)-2-methyl-[1,2,4]triazolo[1,5-c]pyrimidin-7-yl]acetamide] |
| > 1 µM | 0.01 to 0.1 µM | CC(=O)Nc1cc2nc(C)nn2c(-c2ccc(F)c(F)c2)n1 [Compound 129, N-[5-(3,4-difluorophenyl)-2-methyl-[1,2,4]triazolo[1,5-c]pyrimidin-7-yl]acetamide] |
| < 0.01 µM | < 0.01 µM | Cc1nc2c(-c3ccccc3)nc(N)c(Cl)n2n1 [Compound 176, 5-chloro-2-methyl-8-phenyl-[1,2,4]triazolo[1,5-a]pyrazin-6-amine] |
| > 1 µM | > 1 µM | Cc1nc2c3cccnc3nc(-c3ccco3)n2n1 [Compound 137, 7-(furan-2-yl)-4-methyl-3,5,6,8,10-pentazatricyclo[7.4.0.0^2,6]trideca-1(9),2,4,7,10,12-hexaene] |
| 0.01 to 0.1 µM | < 0.01 µM | Nc1nc(-c2ccccc2)n2nc(CF)nc2c1Cl [Compound 138, 8-chloro-2-(fluoromethyl)-5-phenyl-[1,2,4]triazolo[1,5-c]pyrimidin-7-amine] |
| < 0.01 µM | < 0.01 µM | Nc1nc(-c2ccccc2)c2nc(C(F)(F)F)nn2c1Cl [Compound 178, 5-chloro-8-phenyl-2-(trifluoromethyl)-[1,2,4]triazolo[1,5-a]pyrazin-6-amine] |
| 0.01 to 0.1 µM | < 0.01 µM | Cc1cccc(-c2nc(N)c(Cl)n3nc(C)nc23)c1 [Compound 183, 5-chloro-2-methyl-8-(3-methylphenyl)-[1,2,4]triazolo[1,5-a]pyrazin-6-amine] |
| 0.1 to 1 µM | 0.01 to 0.1 µM | Cc1nc2c3c(nc(-c4ccc(C)o4)n2n1)NCC3(C)C [Compound 28, 4,12,12-trimethyl-7-(5-methylfuran-2-yl)-3,5,6,8,10-pentazatricyclo[7.3.0.0^2,6]dodeca-1(9),2,4,7-tetraene] |
| 0.01 to 0.1 µM | < 0.01 µM | Cc1nc2c(-c3ccc(F)cc3)nc(N)c(Br)n2n1 [Compound 171, 5-bromo-8-(4-fluorophenyl)-2-methyl-[1,2,4]triazolo[1,5-a]pyrazin-6-amine] |
| 0.01 to 0.1 µM | < 0.01 µM | Cc1ccc(-c2nc(N)cc3nc(C(F)(F)F)nn23)o1 [Compound 21, 5-(5-methylfuran-2-yl)-2-(trifluoromethyl)-[1,2,4]triazolo[1,5-c]pyrimidin-7-amine] |

The next lines start with the molecule.

| SMILES | IC50 [1] | IC50 [2] |
| --- | --- | --- |
| O=C(Nc1cc2nc(C3CNC3)nn2c(-c2ccco2)n1)C1CC1 [Compound 123, N-[2-(azetidin-3-yl)-5-(furan-2-yl)-[1,2,4]triazolo[1,5-c]pyrimidin-7-yl]cyclopropanecarboxamide] | > 1 µM | 0.01 to 0.1 µM |
| Cc1ccc(-c2nc(N)cn3c(C)cnc23)o1 [Compound 198, 3-methyl-8-(5-methylfuran-2-yl)imidazo[1,2-a]pyrazin-6-amine] | > 1 µM | > 1 µM |
| CC(=O)Nc1cc2nc(C(F)F)nn2c(-c2ccc(C)o2)n1 [Compound 126, N-[2-(difluoromethyl)-5-(5-methylfuran-2-yl)-[1,2,4]triazolo[1,5-c]pyrimidin-7-yl]acetamide] | < 0.01 µM | < 0.01 µM |
| Cc1cc2c(nc(-c3ccc(C)o3)n3nc(C(C)C)nc23)[nH]1 [Compound 75, 11-methyl-7-(5-methylfuran-2-yl)-4-propan-2-yl-3,5,6,8,10-pentazatricyclo[7.3.0.0^2,6]dodeca-1(9),2,4,7,11-pentaene] | 0.01 to 0.1 µM | < 0.01 µM |
| CC(=O)Nc1cn2cc(C)nc2c(-c2ccc(C)o2)n1 [Compound 205, N-[2-methyl-8-(5-methylfuran-2-yl)imidazo[1,2-a]pyrazin-6-yl]acetamide] | 0.01 to 0.1 µM | < 0.01 µM |
| Cc1ccc(-c2nc(NC(=O)C3CC3)cn3ccnc23)o1 [Compound 192, N-[8-(5-methylfuran-2-yl)imidazo[1,2-a]pyrazin-6-yl]cyclopropanecarboxamide] | 0.01 to 0.1 µM | 0.01 to 0.1 µM |
| Cc1nc2c(-c3ccc(C)o3)nc(NC(=O)C3CC3)cn2n1 [Compound 169, N-[2-methyl-8-(5-methlfuran-2-yl)-[1,2,4]triazolo[1,5-a]pyrazin-6-yl]cyclopropanecarboxamide] | < 0.01 µM | < 0.01 µM |
| COc1ccc(Cc2nc3cc(NC(=O)C4CC4)nc(-c4ccc(C)o4)n3n2)cc1 [Compound 4] | < 0.01 µM | < 0.01 µM |
| Cc1nc2c(C)c(NC(=O)C3CC3)nc(-c3ccc(C)o3)n2n1 [Compound 19, N-[2,8-dimethyl-5-(5-methylfuran-2-yl)-[1,2,4]triazolo[1,5-c]pyrimidin-7-yl]cyclopropanecarboxamide] | 0.1 to 1 µM | 0.01 to 0.1 µM |
| Cc1nc2cc(NC(=O)C3CC3)nc(-c3ccc(C(F)(F)F)o3)n2n1 [Compound 69, N-[2-methyl-5-[5-(trifluoromethyl)furan-2-yl]-[1,2,4]triazolo[1,5-c]pyrimidin-7-yl]cyclopropanecarboxamide] | 0.01 to 0.1 µM | < 0.01 µM |
| CC(=O)Nc1cc2nc(C(C)C)nn2c(-c2cnc(C)o2)n1 [Compound 47, N-[5-(2-methyl-1,3-oxazol-5-yl)-2-propan-2-yl-[1,2,4]triazolo[1,5-c]pyrimidin-7-yl]acetamide] | 0.01 to 0.1 µM | < 0.01 µM |
| Cc1nc2cc(NC(=O)NCC(C)C)nc(-c3ccco3)n2n1 [Compound 156, 1-[5-(furan-2-yl)-2-methyl-[1,2,4]triazolo[1,5-c]pyrimidin-7-yl]-3-(2-methylpropyl)urea] | 0.01 to 0.1 µM | < 0.01 µM |
| Cc1ccc(-c2nc3c(c4nc(C(C)C)nn24)CC(=O)N3)o1 [Compound 98, 7-(5-methylfuran-2-yl)-4-propan-2-yl-3,5,6,8,10-pentazatricyclo[7.3.0.0^2,6]dodeca-1(9),2,4,7-tetraen-11-one] | 0.1 to 1 µM | 0.01 to 0.1 µM |
| Cc1ccc(-c2nc(NC(=O)C3CC3)cn3cc(CF)nc23)o1 [Compound 210, N-[2-(fluoromethyl)-8-(5-methylfuran-2-yl)imidazo[1,2-a]pyrazin-6-yl]cyclopropanecarboxamide] | 0.01 to 0.1 µM | < 0.01 µM |
| Cc1nc2c(nc(-c3ccc(C)o3)n3nc(C(C)C)nc23)[nH]1 [Compound 120, 2-methyl-5-(5-methylfuran-2-yl)-8-propan-2-yl-3H-[1,2,4]triazolo[5,1-f]purine] | 0.01 to 0.1 µM | < 0.01 µM |
| Cc1cc2c(nc(-c3ccco3)n3nc(C(F)(F)F)nc23)[nH]1 [Compound 82, 7-(furan-2-yl)-11-methyl-4-(trifluoromethyl)-3,5,6,8,10-pentazatricyclo[7.3.0.0^2,6]dodeca-1(9),2,4,7,11-pentaene] | < 0.01 µM | < 0.01 µM |
| Cc1nc2cc(NC(=O)C3CC3)nc(-c3ccc(C4CC4)o3)n2n1 [Compound 38, N-[5-(5-cyclopropylfuran-2-yl)-2-methyl-[1,2,4]triazolo[1,5-c]pyrimidin-7-yl]cyclopropanecarboxamide] | 0.01 to 0.1 µM | < 0.01 µM |
| Cc1ccc(-c2nc(NC(=O)C3CC3)cn3nc(N)nc23)o1 [Compound 187, N-[2-amino-8-(5-methylfuran-2-yl)-[1,2,4]triazolo[1,5-a]pyrazin-6-yl]cyclopropanecarboxamide] | < 0.01 µM | < 0.01 µM |
| CC(=O)Nc1cc2nc(C3COC3)nn2c(-c2ccco2)n1 [Compound 91, N-[5-(furan-2-yl)-2-(oxetan-3-yl)-[1,2,4]triazolo[1,5-c]pyrimidin-7-yl]acetamide] | 0.01 to 0.1 µM | < 0.01 µM |
| CC(=O)Nc1cc2nc(C(F)F)nn2c(-c2ccco2)n1 [Compound 133, N-[2-(difluoromethyl)-5-(furan-2-yl)-[1,2,4]triazolo[1,5-c]pyrimidin-7-yl]acetamide] | < 0.01 µM | < 0.01 µM |
| Cc1ccc(-c2nc3[nH]ncc3c3nc(C(F)(F)F)nn23)o1 [Compound 153, 7-(5-methylfuran-2-yl)-4-(trifluoromethyl)-3,5,6,8,10,11-hexazatricyclo[7.3.0.0^2,6]dodeca-1(9),2,4,7,11-pentaene] | 0.01 to 0.1 µM | < 0.01 µM |
| Cc1nc2cc(NC(=O)N3CCCC3)nc(-c3ccco3)n2n1 [Compound 103, N-[5-(furan-2-yl)-2-methyl-[1,2,4]triazolo[1,5-c]pyrimidin-7-yl]pyrrolidine-1-carboxamide] | 0.1 to 1 µM | 0.01 to 0.1 µM |
